Experimental findings from patent publication US9802897B2, “Amidopyridinol derivative or pharmaceutically acceptable salt thereof and pharmaceutical composition comprising same as active component” (Research Cooperation Foundation of Yeungnam University, priority 2013, dated 2017) are described below.

One experiment deals with TNBS-induced colitis. Description: TNBS-induced colitis model of inflammatory bowel disease. The format is in vivo, rat (Sprague Dawley). The settings on record: for conditions of the large intestine observed with the naked eye / changes in weights of the rat: TNBS-induced rats; for weight of the large intestine: vs TNBS-treated group. An excerpt:
To see alleviating effects of the compounds of the present invention on colitis, an animal model induced by TNBS and having colitis was used for the experiments. The animal used herein was a 7 to 8 week Sprague Dawley species purchased from Samtaco Bio Korea. After the purchase, the animal was stabilized with typical solid feed for 2 days before being used for the experiments. The animal was freely supplied with feed and water during the experiments, and stayed in conditions maintaining a cage temperature of about 25±1° C. and relative humidity of about 50±10%. The cage was equipped with an automatic lightening system to adjust 12-hour light-dark cycle.
In regard to the experimental groups, 5 groups (i.e., a control group, a group administered with TNBS only, […], […], […]) were used according to the randomized block design, wherein each group consists of 6 rats having an average weight of about 180±10 g. The rats that had been fasting for 24 hours were anesthetized with diethylether (Et2O), and then, a 1 mL syringe connected with a polyethylene catheter was used to slowly inject 0.8 mL of 3% TNBS into colonic enema through the anus, wherein TNBS was diluted with 50% (v/v) ethanol. To prevent leakage of 3% TNBS from the anus, the rats turned upside down and let stand for 60 minutes.
In regard to the control group, only a vehicle (50% (v/v) ethanol) was injected into the rats of the control group in the same manner as in preparation of other experimental groups. To examine the effects of the drug, after being fasting for 24 hours, the rats were administered with drugs, i.e., 0.1 mg/kg or 1.0 mg/kg of Compounds 8a and 8j, once a day at a certain time from the second day to the fifth day of the TNBS treatment. As a comparative experimental material, 5-ASA, which is an active metabolite of sulfasalazine that is the most well-known as a therapeutic agent for IBDs, was used as a positive control group.
All the rats were scarified on the seventh day of the TNBS administration. […] After the large intestine of the rat was harvested, a 5 to 6 cm-long tissue from was cut from the anus to a size of 1 cm, and then, subjected to measure an intestine weight and activation of myeloperoxidase (MPO) in the tissue, and to perform a biopsy. In addition, changes in weight of all the animals used in the experiments were observed by using a digital mass meter, beginning from the fasting step, the TNBS administration, and the drug administration. In consideration of the management and use of laboratory animals, the animal experiments were followed according to institutional guidelines from Laboratory Animal Resources, Yeungnam University.
To measure the activation of MPO, an MPO assay was used. The colorectal tissue was washed with cold PBS, and a weight thereof was measured. Then, 200 μL of lysis buffer (pH7.4, 200 mM NaCl, 5 mM EDTA, 10 mM Tris, 10% glycerol) was added for each 10 mg of the weight of the tissue, and then, the tissue homogenizer (Bio homogenizer M133, BIOSPEC PRODUCTS Inc. USA) was used for 30 seconds in terms of homogenization. The homogenized sample was subjected to centrifugation (1500×g) twice, each for 15 minutes. The supernatant obtained therefrom was used to measure the activation of MPO by using the MPO ELISA kit (HK210, Hycult Biotechnology, Netherlands). 100 μL of the supernatant was added to the 96-well plates, each of which well was coated with an anti-mouse MPO antibody, to allow a reaction at room temperature for 1 hour, followed by being washed with PBS three times. Here, 100 μL of a reconstituted tracer was added thereto to allow a reaction at room temperature for 1 hour, followed by being washed three times repeatedly. Then, 100 μL of a reptavidin-peroxidase conjugate was added thereto to allow a reaction at room temperature for 1 hours, followed being washed. Then, 100 μL of a TMB substrate solution was added thereto to allow a reaction for 30 minutes. […]

The subject of another experiment is HT-29 cells / U937 cells. Description: TNF-α-induced adhesion of HT-29 intestinal epithelial cells and U937 mononuclear cells. The note with it: Homo sapiens, TNF-α 10 ng/ml, read-out: Inhibitory rates (%). The format is cell-based, human. Summed up: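 HT-29 cells were pretreated with compound for 1 h in serum-free medium, then stimulated with TNF-α 10 ng/ml for 3 h at 37 °C. BCECF-AM-labelled U937 cells were co-incubated for 1 h at 37 °C. Non-adherent cells were washed off, and lysates in 0.1% Triton X-100/0.1 M Tris were read by fluorescence.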

For experiment [1], the system named is VEGF-induced angiogenesis in chicken chorioallantoic membrane (CAM). Briefly: CAM analysis of VEGF-induced angiogenesis. The settings on record: Gallus gallus, 72 h; VEGF (20 ng/CAM) + Compound (0.01 nmol/CAM); number of blood vessels after 3 days; read-out: Inhibitory rates (%). The format is in vivo. Summed up:
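Fertilized chicken eggs incubated at 37° C, 55% humidity; on day 10 a window was opened and a cortisone acetate (3 mg/mL)-treated filter disk carrying VEGF at 20 ng/CAM was placed on vessels. Compounds in DMSO/PBS were applied at several concentrations for 3 days; blood vessel number under the disk was counted by stereomicroscopy.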

For `Nc1ccc(O)c(C(=O)O)c1` [Compound 5-ASA, 5-aminosalicylic acid, reference compound], in the experiment on TNBS-induced colitis (100 mg/kg), the “activation of myeloperoxidase (MPO) in colorectal tissue” value is “significantly decreased activation of MPO”, the “conditions of the large intestine observed with the naked eye” value is given as “significantly inhibited” and the “weight of the large intestine” value is “significantly decreased”. Also, the “changes in weights of the rat” value in the experiment on TNBS-induced colitis (300 mg/kg) is given as “slowly recovered on the third day”. In addition, the inhibition at 20000 µM in the experiment with HT-29 cells / U937 cells (20 mM) was determined as 46.8%.

For `Cc1nc(NC(=O)CCc2ccccc2)c(C)c(C)c1O` [Compound 8j, N-(5-hydroxy-3,4,6-trimethylpyridine-2-yl)-3-phenylpropanamide], the inhibition in vivo at 0.01 nmol/CAM in experiment [1] was 74.2 ± 3.9%. The “changes in weights of the rat” value in the experiment with TNBS-induced colitis (1.0 mg/kg once a day) was “significant weight recovery and increased weight”. In addition, in the experiment on TNBS-induced colitis (1.0 mg/kg), the “conditions of the large intestine observed with the naked eye” value is “excellent inhibitory effects on swelling and congestion”; the “weight of the large intestine” value is “significantly decreased”. Further, the inhibition at 1 µM in the experiment with HT-29 cells / U937 cells (1 μM, pre-treated 1 hour) came to 72.5%.
